Laboratory results: patent US10011568B2, “Cyclohexyl pyridine derivative” (priority 2014, dated 2018)

How the values were obtained:
[1] = Measurement of drug concentrations in the brain after foot-tapping; assay type: in vivo; conditions: male gerbil, 0.1 mg/kg iv, after foot-tapping was finished
Method: (§1) A male gerbil (Japan SLC) was anesthetized with isoflurane, and 0.1 mg/kg of a test compound was administered from the jugular vein. After four hours. GR73632 (5 pmol/5 μl saline), which is an NK1 receptor agonist, was administered into the cerebral ventricle at the part 1 mm lateral to and 4.5 mm below the bregma in the head, under anesthesia with isoflurane. After the administration, the gerbil was moved to an observation cage, and the foot-tapping period during 30 minutes after the recovery of the righting reflex was measured. The foot-tapping inhibition rate (%) of each test compound was calculated by the following equation. Foot-tapping inhibition rate (%)−{1−(Fool-tapping period when test compound was administered)/(Foot-tapping period when solvent was administered)}×100 (2) Measurement of Drug Concentrations
After foot-tapping was finished, laparotomy was performed immediately under anesthesia with ether, and a blood sample was taken from the abdominal vena cava. At the same lime, the brain was extracted. Through a quantitative analysis using liquid chromatography-mass spectrometry (LC/MS), the concentrations of the test compound in the plasma and the brain were measured.
(§2) In the table, Ex. No. means the Example number. Inhibition (%) is the loot-tapping inhibition rate, and Cone. (nM) is the drug concentration in the brain.

[2] = target: T1, human NK1 receptor (Homo sapiens (Human), UniProt P25103); experiment: Inhibitory effect on human NK1 receptor (substance P-induced increase in intracellular calcium concentration); assay type: cell-based; conditions: substance P 1 μM, compound 0.1 μM; read-out: SPRR (%), Substance P-Response Remaining (intracellular calcium concentration)
T1 sequence (P25103 whole entry): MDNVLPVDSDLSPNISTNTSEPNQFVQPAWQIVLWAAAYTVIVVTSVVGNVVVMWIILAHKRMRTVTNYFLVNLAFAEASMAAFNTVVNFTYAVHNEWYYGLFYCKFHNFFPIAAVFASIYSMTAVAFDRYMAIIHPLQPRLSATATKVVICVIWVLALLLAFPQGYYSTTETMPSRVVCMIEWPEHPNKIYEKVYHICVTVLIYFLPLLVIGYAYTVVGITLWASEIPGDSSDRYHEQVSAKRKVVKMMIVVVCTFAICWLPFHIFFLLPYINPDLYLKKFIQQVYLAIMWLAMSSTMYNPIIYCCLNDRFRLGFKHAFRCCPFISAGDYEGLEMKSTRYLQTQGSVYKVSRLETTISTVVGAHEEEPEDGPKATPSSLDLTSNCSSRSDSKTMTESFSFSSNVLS
Method: Inhibitory Effect on Human NK1 Receptor
(1) Preparation of Human NK1 Receptor-Expressing Cells
Human NK1 receptor-expressing cells were prepared by the same methods as those described in 2-3 of Test Example 1.
(2) Study on Inhibitory Effect on Increase in Intracellular Calcium Concentration
The human NK1 receptor-expressing cells were washed with 300 μL/well of a washing solution (20 mM HEPES/Hank's Balanced Salt Solution (HBSS) pH 7.3). A fluorescent calcium indicator (Fluo-4 Direct Calcium Assay Kit, Life Technologies, containing 0.42 mM probenecid and 0.1% bovine serum albumin, prepared according to the protocol of the product) was added to the wells at 150 μL/well, and the plate was incubated at 37° C. for 30 minutes in an incubator. Then. DMSO solutions of a test compound, which were prepared at an 80-time higher concentration using 100% dimethyl sulfoxide (DMSO), were added to the wells at 2.5 μL/well (final concentrations of 0.1, 1 and 10 μM), and the solutions were mixed. Then, the plate was further incubated at […] for 30 minutes in an incubator. After 30 minutes, the intracellular calcium concentrations were measured immediately.
The intracellular calcium concentrations were each measured as a fluorescent signal using FDSS (registered trademark) 7000 (Hamamatsu Photonics). A substance P (Peptide Institute. Inc.) solution which was prepared at 0.4 μM or 4 μM using an assay buffer (20 mM HEPES/Hank's Balanced Salt Solution (HBSS) pH 7.3, containing 0.1% bovine serum albumin) was added automatically to each well at 50 μL/well (final concentration of 0.1 or 1 μM) 10 seconds after starting reading, and the fluorescent signal was measured up to 120 seconds.
The intracellular calcium concentration (%) of the cells to which a test compound was added was calculated by the equation below, where the fluorescent signal of the group to which the vehicle (DMSO) was added was regarded as 100%, and the fluorescent signal before the addition of substance P was regarded as 0%. Intracellular calcium concentration (%)—(Fluorescent signal of test compound addition group)/(Fluorescent signal of vehicle addition group)×100
The intracellular calcium concentration (%) calculated was regarded as the remaining agonist activity of substance P (Substance P-Response Remaining: SPRR). In the table, Ex. No. means the Example number. SPRR (%) is the value obtained when the concentration of substance P was 1 μM and the concentration of the compound was 0.1 μM.

[3] = target: human CYP3A4 (Homo sapiens (Human), UniProt P08684); experiment: Inhibitory effect on CYP3A4; assay type: in vitro ADME; conditions: 30-minute pre-incubation, Luciferin-IPA substrate; read-out: IC50 (μM), CYP3A4 inhibition
human CYP3A4, sequence (P08684 whole entry): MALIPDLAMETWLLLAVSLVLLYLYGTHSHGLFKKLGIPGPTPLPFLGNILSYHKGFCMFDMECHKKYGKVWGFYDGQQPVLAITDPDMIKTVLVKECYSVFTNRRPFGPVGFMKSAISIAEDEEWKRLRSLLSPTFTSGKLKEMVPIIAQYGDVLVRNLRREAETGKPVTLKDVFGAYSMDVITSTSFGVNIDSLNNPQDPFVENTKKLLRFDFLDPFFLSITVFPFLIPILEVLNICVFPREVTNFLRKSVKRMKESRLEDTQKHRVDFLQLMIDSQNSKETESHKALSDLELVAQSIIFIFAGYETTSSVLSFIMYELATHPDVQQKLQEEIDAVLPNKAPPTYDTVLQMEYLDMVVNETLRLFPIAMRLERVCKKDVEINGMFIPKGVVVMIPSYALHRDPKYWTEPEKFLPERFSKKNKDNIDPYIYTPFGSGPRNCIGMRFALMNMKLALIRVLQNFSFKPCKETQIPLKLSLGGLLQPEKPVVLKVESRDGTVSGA
Method: Inhibitory Effect on CYP3A4
Enzyme reaction was performed by incubating in a potassium phosphate buffer solution (pH 7.4) containing 1 nM to 20 μM test compound, 3.2 mM magnesium chloride, 0.2 pmol human CYP3A4 (BD Biosciences), 0.5 mM reduced nicotinamide adenine dinucleotide phosphate (NADPH) and 3 μM Luciferin-IPA (Promega) at 37° C. for 10 minutes. The volume of the reaction solution was 50 μL/well. The 30-minute pre-incubation group was incubated at 37° C. for 30 minutes before adding tire substrate, the Luciferin-IPA solution (12.5 μL/well). At the end of the enzyme reaction, 50 μL/well of a Luciferin detection reagent (Promega) was added to the wells, and the plate was left at room temperature for 20 minutes. Then, the emission intensities were measured with Infinite M1000 (TECAN). The enzyme activities (%) relative to the value of the group to which the test compound was not added were calculated.

[4] = target: T1, human NK1 receptor; experiment: Affinity for human NK1 receptor (125I-substance P receptor binding test, membrane fraction); conditions: membrane fraction of human NK1 receptor-expressing 293T cells; read-out: IC50 (nM), concentration required for 50% inhibition of 125I-substance P binding
Method: Affinity for Human NK1 Receptor
(3) Measurement of Binding Affinity to Human NK1 Receptor
(3-1) Preparation of Membrane Fraction from Human NK1 Receptor-Expressing Cells
Human NK1 receptor-expressing cells were prepared in a 175 cm^2 culture flask (Nippon Becton Dickinson). The formation of a complex of the human NK1 receptor expression plasmid and Lipofectamine 2000 was performed by calculating the culture area ratio and increasing the scale of the method described in the above 2-4 by the ratio. The human NK1 receptor-expressing cells were collected in a buffer solution for the membrane fraction preparation (50 mM Tris (Wako Pure Chemical), 120 mM sodium chloride (Wako Pure Chemical Industries), 5 mM potassium chloride (Wako Pure Chemical Industries), 1 mM ethylenediaminetetraacetic acid (Sigma), 0.002 mg/mL chymostatin (Peptide Institute), 0.04 mg/bacitracin (Wako Pure Chemical Industries), 0.005 mg/mL phosphoramidon (Peptide Institute) and 0.5 mM phenylmethylsulfonyl fluoride (Wako Pure Chemical Industries), pH7.4) and centrifuged at 1,880 g for 10 minutes, and the cell sediment was suspended in the buffer solution for the membrane fraction preparation. After freezing and thawing the cells once, the cells were homogenized using a Dounce-type homogenizer (cooled on ice, 1000 rpm, 20 times) The homogenized cell suspension was centrifuged at 20,000 rpm for 10 minutes, and the supernatant was removed to obtain cell sediment. The cell sediment was suspended again in the buffer solution for the membrane fraction preparation and homogenized using a Dounce-type homogenizer (cooled on ice, 1000 rpm, 30 times). The cell suspension was centrifuged at 20,000 rpm for 10 minutes, and the supernatant was removed to obtain cell sediment. The same homogenization and centrifugation were repeated again, and final cell sediment was obtained. The final cell sediment was suspended in a buffer solution for the receptor binding test (50 mM Tris (Wako Pure Chemical Industries). 3 mM manganese chloride (Wako Pure Chemical Industries), 0.002 mg/mL chymostatin (Peptide Institute), 0.04 mg/bacitracin (Wako Pure Chemical Industries) and 0.02% bovine serum albumin (Sigma), pH 7.4), and the protein concentration was measured using BCA Protein Assay Kit (Pierce).
(3-2) Receptor Binding Test
The buffer solution for the receptor binding test was dispensed to the wells of a 96-well assay plate (Greiner) at 22.5 μL/well. DMSO solutions of a test compound, which were prepared at an 80-time higher concentration using 100% dimethyl sulfoxide (DMSO), were added to the wells at 2.5 μL/well (final concentrations of 1 nM to 100 nM), and the solutions were mixed. As a radiolabeled ligand, ^125I-substance P (Substance P, [^125I]Tyr^8-, Perkin Elmer) was used. ^125I-substance P was diluted with the buffer solution for the receptor binding test to a concentration resulting in 125 pmol/25 μL/well and added to the 96-well assay plate, and the solutions were mixed. The membrane fraction prepared from the human NK1 receptor-expressing cells was diluted with the buffer solution for the receptor binding test to a concentration resulting in 8 to 10 μg/well, suspended until the suspension became in such a homogenous state that the suspension could flow through a 27G injection needle smoothly and then added to the 96-well assay plate at 150 μL/well. Then, the plate was incubated at room temperature for 60 minutes while shaking the plate. The reaction solutions were suction-filtered through a multiscreen 96-well filter plate (Millipore) which had been pre-treated with 0.3% polyethyleneimine, and the reaction was terminated by washing with a washing solution (50 mM Tris and 0.02% bovine serum albumin, pH 7.4) four times. The bottom of the microplate was dried at 60° C., and then 100 μL/well of MicroScint 20 (PerkinElmer) was dispensed to the wells. The top of the plate was sealed with TopSeal A (PerkinElmer), and the plate was shaken for 5 to 10 minutes. […]

[5] = target: NK1 receptor (Meriones unguiculatus (Mongolian jird) (Gerbillus unguiculatus), UniProt Q5DUB1); experiment: Effect on foot-tapping induced by NK1 receptor agonist GR73632; assay type: in vivo; conditions: male gerbil, 0.1 mg/kg iv, GR73632 after four hours
NK1 receptor, sequence (Q5DUB1 whole entry): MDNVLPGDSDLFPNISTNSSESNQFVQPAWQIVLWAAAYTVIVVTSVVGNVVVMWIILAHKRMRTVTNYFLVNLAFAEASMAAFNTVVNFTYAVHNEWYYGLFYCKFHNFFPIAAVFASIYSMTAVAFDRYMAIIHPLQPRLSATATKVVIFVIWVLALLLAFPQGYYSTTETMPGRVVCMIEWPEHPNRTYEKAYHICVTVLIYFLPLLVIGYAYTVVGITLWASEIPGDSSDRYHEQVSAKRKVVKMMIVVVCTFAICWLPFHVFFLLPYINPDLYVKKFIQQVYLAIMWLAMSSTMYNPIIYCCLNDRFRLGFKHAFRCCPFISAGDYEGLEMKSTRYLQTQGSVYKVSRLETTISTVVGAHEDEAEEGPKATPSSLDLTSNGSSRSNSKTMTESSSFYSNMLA
Method: (1) Effect on Foot-Tapping
The test compound solution was prepared by dissolving the test compound in a vehicle (a mixture of 50% N,N-dimethylacetamide (Wako Pure Chemical Industries), 30% propylene glycol (Wako Pure Chemical Industries). 4% 2-hydroxypropyl-β-cyclodextrin (Wako Pure Chemical Industries) and 16% distilled water).
as §1, §2

Compound | Conc. (nM), drug concentration in the brain [1] [nM] | remaining activity at 0.1 µM [2] [%] | IC50 [3] [µM] | IC50 [4] [nM] | Inhibition (%), foot-tapping inhibition rate [5] [%]
Cc1cc(F)ccc1-c1cc(C2CCC(CCC(=O)O)CC2)ncc1N(C)C(=O)C(C)(C)c1cc(C(F)(F)F)cc(C(F)(F)F)c1 (stereo not shown) [Example 2, 3-{4-[5-{[2-(3,5-Bistrifluoromethylphenyl)-2-methylpropionyl]methylamino}-4-(4-fluoro-2-methylphenyl)pyridin-2-yl]cyclohexyl}propionic Acid] | 19 | 7.5 | 6.8 | – | –
Cc1cc(F)ccc1-c1cc(C2CCC(CC(=O)O)CC2)nc(Cl)c1N(C)C(=O)C(C)(C)c1cc(C(F)(F)F)cc(C(F)(F)F)c1 (stereo not shown) [Example 17, {4-[5-{[2-(3,5-Bistrifluoromethylphenyl)-2-methylpropionyl]methylamino}-6-chloro-4-(4-fluoro-2-methylphenyl)pyridin-2-yl]cyclohexyl}acetic Acid] | 57 | – | 3.3 | – | –
Cc1cc(F)ccc1-c1cc(C2CCC(CC(=O)O)CC2)nc(C)c1N(C)C(=O)C(C)(C)c1cc(C(F)(F)F)cc(C(F)(F)F)c1 (stereo not shown) [Example 18, {4-[5-{[2-(3,5-Bistrifluoromethylphenyl)-2-methylpropionyl]methylamino}-4-(4-fluoro-2-methylphenyl)-6-methylpyridin-2-yl]cyclohexyl}acetic Acid] | 47 | – | 4.9 | 6.45 | 100
Cc1cc(F)ccc1-c1cc(C2CCC(CC(=O)O)CC2)nc(CO)c1N(C)C(=O)C(C)(C)c1cc(C(F)(F)F)cc(C(F)(F)F)c1 (stereo not shown) [Example 19, {4-[5-{[2-(3,5-Bistrifluoromethylphenyl)-2-methylpropionyl]methylamino}-4-(4-fluoro-2-methylphenyl)-6-hydroxymethylpyridin-2-yl]cyclohexyl}acetic Acid] | 24 | 26 | – | 4.96 | 95
Cc1cc(F)ccc1-c1cc(C2CCC(CC(=O)O)CC2)ncc1N(C)C(=O)C(C)(CO)c1cc(C(F)(F)F)cc(C(F)(F)F)c1 (stereo not shown) [Example 5, {4-[5-{[2-(3,5-Bistrifluoromethylphenyl)-3-hydroxy-2-methylpropionyl]methylamino}-4-(4-fluoro-2-methylphenyl)pyridin-2-yl]cyclohexyl}acetic Acid] | – | 26 | 13 | 0.98 | –
Cc1cc(F)ccc1-c1cc(C2CCC(O)(CC(=O)O)CC2)ncc1N(C)C(=O)C(C)(C)c1cc(C(F)(F)F)cc(C(F)(F)F)c1 (stereo not shown) [Example 6, {4-[5-{[2-(3,5-Bistrifluoromethylphenyl)-2-methylpropionyl]methylamino}-4-(4-fluoro-2-methylphenyl)pyridin-2-yl]-1-hydroxycyclohexyl}acetic Acid] | – | 21 | 6.1 | 1 | –
Cc1cc(F)ccc1-c1cc(C2CCC(C)(CC(=O)O)CC2)ncc1N(C)C(=O)C(C)(C)c1cc(C(F)(F)F)cc(C(F)(F)F)c1 (stereo not shown) [Example 15, {4-[5-{[2-(3,5-Bistrifluoromethylphenyl)-2-methylpropionyl]methylamino}-4-(4-fluoro-2-methylphenyl)pyridin-2-yl]-1-methylcycloheyl}acetic Acid] | 39 | 3.7 | – | – | 100
Cc1cc(F)ccc1-c1cc([C@H]2CC[C@@H](C(C)(C)C(=O)O)CC2)ncc1N(C)C(=O)C(C)(C)c1cc(C(F)(F)F)cc(C(F)(F)F)c1 [Example 12, cis-2-{4-[5-{[2-(3,5-Bistrifluoromethylphenyl)-2-methylpropionyl]methylamino}-4-(4-fluoro-2-methylphenyl)pyridin-2-yl]cyclohexyl}-2-methylpropionic Acid] | – | 53 | 2.2 | 4.46 | –
